Structures can show the parent of a compound that is named as a salt. Where two headings read alike, the source gives them in different places.
Legend:
Assay in all cases: AK assay 384-well format, Prestwick library screening
E. cloacae = format: cell-based, Enterobacter cloacae; conditions: 50 μM final drug concentration; for fold induction at 50 µM: Enterobacter cloacae, 3 h
[1] = system: A. baumannii strain 98-37-09; format: cell-based, Acinetobacter baumannii; conditions: 50 μM final drug concentration; for fold induction at 50 µM: Acinetobacter baumannii, 983709, 3 h
K. pneumoniae = format: cell-based, Klebsiella pneumoniae; conditions: 50 μM final drug concentration; for fold induction at 50 µM: Klebsiella pneumoniae, 3 h
P. aeruginosa = format: cell-based, Pseudomonas aeruginosa; conditions: 50 μM final drug concentration; for fold induction at 50 µM: Pseudomonas aeruginosa, 3 h
[2] = system: S. aureus strain USA300-0114; format: cell-based, Staphylococcus aureus; conditions: 50 μM final drug concentration; for fold induction at 50 µM: Staphylococcus aureus, USA300, 3 h
E. faecium = format: cell-based, Enterococcus faecium; conditions: 50 μM final drug concentration; for fold induction at 50 µM: Enterococcus faecium, 3 h
E. coli = format: cell-based, Escherichia coli; conditions: 50 μM final drug concentration; for fold induction at 50 µM: Escherichia coli, 3 h
[3] = cutoff for positive-scoring molecules 3-fold increase, read-out: AK-based Prestwick Library Screening Results, E. cloacae (fold increase in extracellular AK activity)
[4] = cutoff for positive-scoring molecules 3-fold increase, read-out: AK-based Prestwick Library Screening Results, A. baumannii (fold increase in extracellular AK activity)
[5] = cutoff for positive-scoring molecules 3-fold increase, read-out: AK-based Prestwick Library Screening Results, K. pneumoniae (fold increase in extracellular AK activity)
[6] = cutoff for positive-scoring molecules 3-fold increase, read-out: AK-based Prestwick Library Screening Results, P. aeruginosa (fold increase in extracellular AK activity)
[7] = cutoff for positive-scoring molecules 3-fold increase, read-out: AK-based Prestwick Library Screening Results, S. aureus (fold increase in extracellular AK activity)
[8] = cutoff for positive-scoring molecules 3-fold increase, read-out: AK-based Prestwick Library Screening Results, E. faecium (fold increase in extracellular AK activity)
[9] = cutoff for positive-scoring molecules 3-fold increase, read-out: AK-based Prestwick Library Screening Results, E. coli (fold increase in extracellular AK activity)
[10] = cutoff for positive-scoring molecules 3-fold increase
[11] = planktonic E. cloacae, cutoff for positive-scoring molecules 3-fold increase, read-out: AK-based Prestwick Library Screening Results, E. cloacae (increase in extracellular AK activity)
[12] = planktonic A. baumannii, cutoff for positive-scoring molecules 3-fold increase, read-out: AK-based Prestwick Library Screening Results, A. baumannii (increase in extracellular AK activity)
[13] = planktonic K. pneumoniae, cutoff for positive-scoring molecules 3-fold increase, read-out: AK-based Prestwick Library Screening Results, K. pneumoniae (increase in extracellular AK activity)
[14] = planktonic P. aeruginosa, cutoff for positive-scoring molecules 3-fold increase, read-out: AK-based Prestwick Library Screening Results, P. aeruginosa (increase in extracellular AK activity)
[15] = planktonic S. aureus, cutoff for positive-scoring molecules 3-fold increase, read-out: AK-based Prestwick Library Screening Results, S. aureus (increase in extracellular AK activity)
[16] = planktonic E. faecium, cutoff for positive-scoring molecules 3-fold increase, read-out: AK-based Prestwick Library Screening Results, E. faecium (increase in extracellular AK activity)
[17] = planktonic E. coli, cutoff for positive-scoring molecules 3-fold increase, read-out: AK-based Prestwick Library Screening Results, E. coli (increase in extracellular AK activity)
[18] = planktonic E. cloacae, 384-well, cutoff for positive-scoring molecules 3-fold increase, read-out: AK-based Prestwick Library Screening Results: E. cloacae (increase in extracellular AK activity)
[19] = planktonic A. baumannii, 384-well, cutoff for positive-scoring molecules 3-fold increase, read-out: AK-based Prestwick Library Screening Results: A. baumannii (increase in extracellular AK activity)
[20] = planktonic K. pneumoniae, 384-well, cutoff for positive-scoring molecules 3-fold increase, read-out: AK-based Prestwick Library Screening Results: K. pneumoniae (increase in extracellular AK activity)
[21] = planktonic P. aeruginosa, 384-well, cutoff for positive-scoring molecules 3-fold increase, read-out: AK-based Prestwick Library Screening Results: P. aeruginosa (increase in extracellular AK activity)
[22] = planktonic S. aureus, 384-well, cutoff for positive-scoring molecules 3-fold increase, read-out: AK-based Prestwick Library Screening Results: S. aureus (increase in extracellular AK activity)
[23] = planktonic E. faecium, 384-well, cutoff for positive-scoring molecules 3-fold increase, read-out: AK-based Prestwick Library Screening Results: E. faecium (increase in extracellular AK activity)
[24] = planktonic E. coli, 384-well, cutoff for positive-scoring molecules 3-fold increase, read-out: AK-based Prestwick Library Screening Results: E. coli (increase in extracellular AK activity)

Compound: O=C(c1ccccc1)c1ccc2n1CCC2C(=O)O (centres unmarked) [Ketorolac tromethamine]
- fold induction at 50 µM (E. cloacae; [3]): 1.4
- fold induction at 50 µM [1, 4]: 1
- fold induction at 50 µM (K. pneumoniae; [5]): 1
- fold induction at 50 µM (P. aeruginosa; [6]): 1
- fold induction at 50 µM [2, 7]: 1.1
- fold induction at 50 µM (E. faecium; [8]): 1
- fold induction at 50 µM (E. coli; [9]): 1.3

Compound: CC[C@@H](CO)NCCN[C@@H](CC)CO [Ethambutol dihydrochloride]
- fold induction at 50 µM (E. cloacae; 384-well format, cutoff for positive-scoring molecules 3-fold increase, read-out: AK-based Prestwick Library Screening Results, E. cloacae (increase in extracellular AK activity)): 1.1
- fold induction at 50 µM ([1]; 384-well format, cutoff for positive-scoring molecules 3-fold increase, read-out: AK-based Prestwick Library Screening Results, A. baumannii (increase in extracellular AK activity)): 0.8
- fold induction at 50 µM (K. pneumoniae; 384-well format, cutoff for positive-scoring molecules 3-fold increase, read-out: AK-based Prestwick Library Screening Results, K. pneumoniae (increase in extracellular AK activity)): 0.7
- fold induction at 50 µM (P. aeruginosa; 384-well format, cutoff for positive-scoring molecules 3-fold increase, read-out: AK-based Prestwick Library Screening Results, P. aeruginosa (increase in extracellular AK activity)): 0.7
- fold induction at 50 µM ([2]; 384-well format, cutoff for positive-scoring molecules 3-fold increase, read-out: AK-based Prestwick Library Screening Results, S. aureus (increase in extracellular AK activity)): 0.6
- fold induction at 50 µM (E. faecium; 384-well format, cutoff for positive-scoring molecules 3-fold increase, read-out: AK-based Prestwick Library Screening Results, E. faecium (increase in extracellular AK activity)): 0.9
- fold induction at 50 µM (E. coli; 384-well format, cutoff for positive-scoring molecules 3-fold increase, read-out: AK-based Prestwick Library Screening Results, E. coli (increase in extracellular AK activity)): 0.9

Compound: CCO.C[C@H]1c2cccc(O)c2C(O)=C2C(=O)[C@]3(O)C(O)=C(C(N)=O)C(=O)[C@@H](N(C)C)[C@@H]3[C@@H](O)[C@@H]21.C[C@H]1c2cccc(O)c2C(O)=C2C(=O)[C@]3(O)C(O)=C(C(N)=O)C(=O)[C@@H](N(C)C)[C@@H]3[C@@H](O)[C@@H]21.Cl.Cl.O [Doxycycline hyclate]
- AK-based Prestwick Library Screening Results, E. cloacae (fold increase in extracellular AK activity) (E. cloacae; [10]): 1.5
- AK-based Prestwick Library Screening Results, A. baumannii (fold increase in extracellular AK activity) [1, 10]: 3.4
- AK-based Prestwick Library Screening Results, K. pneumoniae (fold increase in extracellular AK activity) (K. pneumoniae; [10]): 0.3
- AK-based Prestwick Library Screening Results, P. aeruginosa (fold increase in extracellular AK activity) (P. aeruginosa; [10]): 0.7
- AK-based Prestwick Library Screening Results, S. aureus (fold increase in extracellular AK activity) [2, 10]: 9.4
- AK-based Prestwick Library Screening Results, E. faecium (fold increase in extracellular AK activity) (E. faecium; [10]): 1.1
- AK-based Prestwick Library Screening Results, E. coli (fold increase in extracellular AK activity) (E. coli; [10]): 2.0

Compound: O=c1oc2ccccc2c(O)c1Cc1c(O)c2ccccc2oc1=O [Dicumarol]
- fold induction at 50 µM (E. cloacae; [3]): 1.5
- fold induction at 50 µM [1, 4]: 1.3
- fold induction at 50 µM (K. pneumoniae; [5]): 1.1
- fold induction at 50 µM (P. aeruginosa; [6]): 1.2
- fold induction at 50 µM [2, 7]: 1.3
- fold induction at 50 µM (E. faecium; [8]): 1.3
- fold induction at 50 µM (E. coli; [9]): 1.1

Compound: CCOc1ccc2ccccc2c1C(=O)N[C@@H]1C(=O)N2[C@@H]1SC(C)(C)[C@@H]2C(=O)O [Nafcillin sodium salt monohydrate]
- fold induction at 50 µM (E. cloacae; [3]): 1.4
- fold induction at 50 µM [1, 4]: 1.5
- fold induction at 50 µM (K. pneumoniae; [5]): 1
- fold induction at 50 µM (P. aeruginosa; [6]): 1.3
- fold induction at 50 µM [2, 7]: 6.5
- fold induction at 50 µM (E. faecium; [8]): 1
- fold induction at 50 µM (E. coli; [9]): 1.2

Compound: C=C[C@H]1C[N@@]2CC[C@H]1C[C@@H]2[C@@H](O)c1ccnc2ccccc12 [Cinchonine]
- fold induction at 50 µM (E. cloacae; planktonic, cutoff for positive 3-fold increase, read-out: AK-based Prestwick Library Screening Results, E. cloacae (fold increase in extracellular AK activity)): 1.5
- fold induction at 50 µM ([1]; planktonic, cutoff for positive 3-fold increase, read-out: AK-based Prestwick Library Screening Results, A. baumannii (fold increase in extracellular AK activity)): 1.1
- fold induction at 50 µM (K. pneumoniae; planktonic, cutoff for positive 3-fold increase, read-out: AK-based Prestwick Library Screening Results, K. pneumoniae (fold increase in extracellular AK activity)): 1
- fold induction at 50 µM (P. aeruginosa; planktonic, cutoff for positive 3-fold increase, read-out: AK-based Prestwick Library Screening Results, P. aeruginosa (fold increase in extracellular AK activity)): 1.1
- fold induction at 50 µM ([2]; planktonic, cutoff for positive 3-fold increase, read-out: AK-based Prestwick Library Screening Results, S. aureus (fold increase in extracellular AK activity)): 1.6
- fold induction at 50 µM (E. faecium; planktonic, cutoff for positive 3-fold increase, read-out: AK-based Prestwick Library Screening Results, E. faecium (fold increase in extracellular AK activity)): 1.1
- fold induction at 50 µM (E. coli; planktonic, cutoff for positive 3-fold increase, read-out: AK-based Prestwick Library Screening Results, E. coli (fold increase in extracellular AK activity)): 1.2

Compound: C[n+]1cccc(C(=O)[O-])c1 [Trigonelline]
- fold induction at 50 µM (E. cloacae; [11]): 1.2
- fold induction at 50 µM [1, 12]: 0.9
- fold induction at 50 µM (K. pneumoniae; [13]): 0.7
- fold induction at 50 µM (P. aeruginosa; [14]): 0.8
- fold induction at 50 µM [2, 15]: 0.8
- fold induction at 50 µM (E. faecium; [16]): 0.9
- fold induction at 50 µM (E. coli; [17]): 0.9

Compound: Dihydroergotamine tartrate
- AK-based Prestwick Library Screening Results: E. cloacae (increase in extracellular AK activity) (E. cloacae; planktonic E. cloacae, 384-well, cutoff for positive-scoring molecules 3-fold increase): 1.3
- AK-based Prestwick Library Screening Results: A. baumannii (increase in extracellular AK activity) ([1]; planktonic A. baumannii, 384-well, cutoff for positive-scoring molecules 3-fold increase): 1.5
- AK-based Prestwick Library Screening Results: K. pneumoniae (increase in extracellular AK activity) (K. pneumoniae; planktonic K. pneumoniae, 384-well, cutoff for positive-scoring molecules 3-fold increase): 0.9
- AK-based Prestwick Library Screening Results: P. aeruginosa (increase in extracellular AK activity) (P. aeruginosa; planktonic P. aeruginosa, 384-well, cutoff for positive-scoring molecules 3-fold increase): 1.2
- AK-based Prestwick Library Screening Results: S. aureus (increase in extracellular AK activity) ([2]; planktonic S. aureus, 384-well, cutoff for positive-scoring molecules 3-fold increase): 1.0
- AK-based Prestwick Library Screening Results: E. faecium (increase in extracellular AK activity) (E. faecium; planktonic E. faecium, 384-well, cutoff for positive-scoring molecules 3-fold increase): 1.0
- AK-based Prestwick Library Screening Results: E. coli (increase in extracellular AK activity) (E. coli; planktonic E. coli, 384-well, […]): 1.3

Compound: O=C(CCCN1CCC2(CC1)C(=O)NCN2c1ccccc1)c1ccc(F)cc1 [Spiperone]
- fold induction at 50 µM (E. cloacae; [18]): 1.3
- fold induction at 50 µM [1, 19]: 1.2
- fold induction at 50 µM (K. pneumoniae; [20]): 0.9
- fold induction at 50 µM (P. aeruginosa; [21]): 1.2
- fold induction at 50 µM [2, 22]: 1
- fold induction at 50 µM (E. faecium; [23]): 1.2
- fold induction at 50 µM (E. coli; [24]): 1.3

Compound: CO[C@]12C[C@@H](COC(=O)c3cncc(Br)c3)CN(C)[C@@H]1Cc1cn(C)c3cccc2c13 [Nicergoline]
- fold induction at 50 µM (E. cloacae; [18]): 1.2
- fold induction at 50 µM [1, 19]: 1.4
- fold induction at 50 µM (K. pneumoniae; [20]): 1
- fold induction at 50 µM (P. aeruginosa; [21]): 1.2
- fold induction at 50 µM [2, 22]: 1.4
- fold induction at 50 µM (E. faecium; [23]): 1
- fold induction at 50 µM (E. coli; [24]): 1.3

Compound: C[C@@H]1C[C@H]2[C@@H]3CCC4=CC(=O)C=C[C@]4(C)[C@@]3(Cl)[C@@H](O)C[C@]2(C)[C@@]1(OC(=O)c1ccco1)C(=O)CCl [Mometasone furoate]
- fold induction at 50 µM (E. cloacae; [11]): 0.9
- fold induction at 50 µM [1, 12]: 0.9
- fold induction at 50 µM (K. pneumoniae; [13]): 0.7
- fold induction at 50 µM (P. aeruginosa; [14]): 0.6
- fold induction at 50 µM [2, 15]: 0.4
- fold induction at 50 µM (E. faecium; [16]): 1
- fold induction at 50 µM (E. coli; [17]): 0.9
